Laboratory results as given in ChEMBL document CHEMBL1147040, “Potent inhibition of HIV-1 replication by novel non-peptidyl small molecule inhibitors of protease dimerization” (J Biol Chem, 2007).
Calls of active or inactive are those of the source. The rule behind the calls is not given here.

Tests used:
[1] = test system: Human immunodeficiency virus 1; assay: Antiviral activity against HIV1 LAI in MT2 cells; type: functional, organism-based; settings: Human immunodeficiency virus 1, LAI
[2] = target: Protease (Human immunodeficiency virus 1) (UniProt Q9YQ12); assay: Inhibition of HIV1 protease dimerization in COS7 cells at 1 uM
Protease = Protease (Human immunodeficiency virus 1, UniProt Q9YQ12); assay: Inhibition of HIV1 protease
Sequence of Protease (Q9YQ12 whole entry): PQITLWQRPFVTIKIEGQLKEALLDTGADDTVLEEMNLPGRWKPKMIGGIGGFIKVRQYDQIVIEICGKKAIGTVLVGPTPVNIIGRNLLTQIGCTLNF

Sequence of Protease (Human immunodeficiency virus 1) (Q9YQ12 as listed by the source): as the sequence (Q9YQ12 whole entry) above

IC50 [1] [nM] | Activity [2] | Ki (Protease) [nM] | SMILES
3.4 | Active |  | CC(C)CN(C[C@@H](O)[C@H](Cc1ccccc1)NC(=O)O[C@H]1CO[C@H]2OCC[C@H]21)S(=O)(=O)c1ccc(N)cc1
0.3 | Active |  | COc1ccc(S(=O)(=O)N(CC(C)C)C[C@@H](O)[C@H](Cc2ccccc2)NC(=O)O[C@H]2CO[C@H]3OCC[C@H]32)cc1
480 | Active |  | COc1ccc(S(=O)(=O)N(CC(C)C)C[C@@H](O)[C@H](Cc2ccccc2)NC(=O)C[C@H]2CO[C@H]3OCC[C@@H]23)cc1
100 |  |  | CCC[C@@]1(CCc2ccccc2)CC(O)=C([C@H](CC)c2cccc(NS(=O)(=O)c3ccc(C(F)(F)F)cn3)c2)C(=O)O1
5 | Active | 0.029 | CC(C)CN(C[C@@H](O)[C@H](CSc1ccccc1)NC(=O)O[C@@H]1C[C@@H]2CCO[C@@H]2C1)S(=O)(=O)c1ccc(CO)cc1
0.2 | Active | 0.0068 | Cc1nc(COc2ccc(C[C@H](NC(=O)O[C@H]3CO[C@H]4OCC[C@H]43)[C@H](O)CN(CC(C)C)S(=O)(=O)c3ccc4c(c3)OCO4)cc2)cs1 [BRECANAVIR]
0.4 | Active | 0.014 | CC(C)CN(C[C@@H](O)[C@H](Cc1ccccc1)NC(=O)O[C@H]1CO[C@H]2OCC[C@H]21)S(=O)(=O)c1ccc2c(c1)OCO2
1.4 | Active | 0.0035 | CC(C)CN(C[C@@H](O)[C@H](Cc1ccccc1)NC(=O)O[C@@H]1C[C@@H]2CCO[C@@H]2C1)S(=O)(=O)c1ccc(CO)cc1
